Data: patent publication US10093664B2, “Bicyclo[1.1.1]pentane inhibitors of dual leucine zipper (DLK) kinase for the treatment of disease” (priority 2016, dated 2018)
pIC50, pKd: −log10 of the molar value. Where two headings read alike, the source gives them in different places.

What was measured:
human DLK [1] = target: T1, human DLK (Homo sapiens (Human), UniProt Q12852); test: biochemical; format: binding
Protocol: The DLK dissociation constants (Kd) have been determined in the KINOMEscan KdELECT Service at DiscoveRx.
A fusion protein of full length of human DLK (amino acids 1-859) and the DNA binding domain of NFkB was expressed in transiently transfected HEK293 cells. From these HEK 293 cells, extracts were prepared in M-PER extraction buffer (Pierce) in the presence of Protease Inhibitor Cocktail Complete (Roche) and Phosphatase Inhibitor Cocktail Set II (Merck) per manufacturers' instructions. The DLK fusion protein was labeled with a chimeric double-stranded DNA tag containing the NFkB binding site (5′-[sequence]-3′) fused to an amplicon for qPCR readout, which was added directly to the expression extract (the final concentration of DNA-tag in the binding reaction is 0.1 nM).
The liganded beads were blocked with excess biotin and washed with blocking buffer (SeaBlock (Pierce), 1% BSA, 0.05% Tween 20, 1 mM DTT) to remove unbound ligand and to reduce nonspecific binding.
Extracts were used directly in binding assays without any enzyme purification steps at a ≥10,000-fold overall stock dilution (final DNA-tagged enzyme concentration <0.1 nM). Extracts were loaded with DNA-tag and diluted into the binding reaction in a two step process. First extracts were diluted 1:100 in 1× binding buffer (PBS/0.05% Tween 20/10 mM DTT/0.1% BSA/2 μg/ml sonicated salmon sperm DNA) containing 10 nM DNA-tag. This dilution was allowed to equilibrate at room temperature for 15 minutes and then subsequently diluted 1:100 in 1× binding buffer. Test compounds were prepared as 111× stocks in 100% DMSO. Kds were determined using an 11-point 3-fold compound dilution series with three DMSO control points. […] The compounds were then diluted directly into the assays such that the final concentration of DMSO was 0.9%. All reactions performed in polypropylene 384-well plates. Each was a final volume of 0.02 mL. Assays were incubated with shaking for 1 hour at room temperature. Then the beads were pelleted and washed with wash buffer (1×PBS, 0.05% Tween 20) to remove displaced kinase and test compound. […] The kinase concentration in the eluates was measured by qPCR. qPCR reactions were assembled by adding 2.5 μL of kinase eluate to 7.5 μL of qPCR master mix containing 0.15 μM amplicon primers and 0.15 μM amplicon probe. The qPCR protocol consisted of a 10 minute hot start at 95° C., followed by 35 cycles of 95° C. for 15 seconds, 60° C. for 1 minute.
Test compounds were prepared as 11× stocks in 100% DMSO. Kds were determined using an 11-point 3-fold compound dilution series with three DMSO control points. […] The compounds were then diluted directly into the assays such that the final concentration of DMSO was 0.9%. The Kds were determined using a compound top concentration of 30,000 nM. Kd measurements were performed in duplicate.
Binding constants (Kds) were calculated with a standard dose-response curve using the Hill equation:
The Hill Slope was set to −1.

human DLK [2] = target: T1, human DLK; test: cell-based; details: p-cJun (Ser63)
Protocol: HEK293 cells stably transfected with a Dox-inducible human DLK were plated into a 384-well plate in 20 μl (40,000 cells/well) of DMEM medium (without phenol red) containing 10% fetal bovine serum, 1.5 μg/ml doxycycline and 1 μg/ml puromycin. The cells as negative control were grown in the absence of doxycycline. The plate was incubated at 37° C., 5% CO2 for 20 h, before DMSO (control) or compounds diluted in medium were added. The cells were incubated at 37° C. for an additional 5 h, followed by lysis and the addition detection antibodies from p-cJun (Ser63) cellular assay kit (Cisbio) per manufacturer protocol. The standard dose response curves were fitted by Genedata Screener software using the variable-slope model: Signal=Signalnegative control+(SignalDMSO control−Signalnegative control)/(1+(IC50/Dose)^Hill slope). Only signal and dose in the equation were treated as known values.

[3] = Table 2b DLK activity (global), read-out: Kd
[4] = Table 2b (global), additional assay runs on multiple batches, includes Table 2a data in the averaging, HEK293, read-out: Cell IC50

Nc1ncc(-c2cn(C34CC(N5CCN(CC(F)(F)F)CC5)(C3)C4)c(C3CC3)n2)cc1OC(F)(F)F [Example 15, 5-(2-cyclopropyl-1-(3-(4-(2,2,2-trifluoroethyl)piperazin-1-yl)bicyclo[1.1.1]pentan-1-yl)-1H-imidazol-4-yl)-3-(trifluoromethoxy)pyridin-2-amine]
pKd (human DLK [1]; [3]): 7.74 | pIC50 (human DLK [2]; [4]): 6.27

Nc1ncc(-c2cn(C34CC(N5CCOCC5)(C3)C4)c(C(O)C(F)(F)F)n2)cc1C(F)(F)F (single isomer, unassigned) [Example 69a, 1-(4-(6-amino-5-(trifluoromethyl)pyridin-3-yl)-1-(3-morpholinobicyclo[1.1.1]pentan-1-yl)-1H-imidazol-2-yl)-2,2,2-trifluoroethan-1-ol]
pKd (human DLK [1]; [3]): 9.44 | pIC50 (human DLK [2]; [4]): 7.44

CN1CCN(C23CC(n4cc(-c5cnc(N)c(OC(F)(F)F)c5)nc4C4CC4)(C2)C3)C(=O)C1 [Example 23, 1-(3-(4-(6-amino-5-(trifluoromethoxy)pyridin-3-yl)-2-cyclopropyl-1H-imidazol-1-yl)bicyclo[1.1.1]pentan-1-yl)-4-methylpiperazin-2-one]
pKd (human DLK [1]; [3]): 7.77 | pIC50 (human DLK [2]; [4]): 6.33

Nc1ncc(-c2cn(C34CC(N5CCOCC5)(C3)C4)c(C3CCC3)n2)cc1OC(F)(F)F [Example 43, 5-(2-cyclobutyl-1-(3-morpholinobicyclo[1.1.1]pentan-1-yl)-1H-imidazol-4-yl)-3-(trifluoromethoxy)pyridin-2-amine]
pKd (human DLK [1]; [3]): 7.49 | pIC50 (human DLK [2]; [4]): 6.22

Nc1ncc(-c2cn(C34CC(N5CCCCC5)(C3)C4)c(C3CC3)n2)cc1OC(F)(F)F [Example 19, 5-(2-cyclopropyl-1-(3-(piperidin-1-yl)bicyclo[1.1.1]pentan-1-yl)-1H-imidazol-4-yl)-3-(trifluoromethoxy)pyridin-2-amine]
pKd (human DLK [1]; [3]): 7.85 | pIC50 (human DLK [2]; [4]): 6.22

CCC(O)c1nc(-c2cnc(N)c(OC(F)(F)F)c2)cn1C12CC(C1)C2 (stereo not drawn) [Example 54, 1-(4-(6-amino-5-(trifluoromethoxy)pyridin-3-yl)-1-(bicyclo[1.1.1]pentan-1-yl)-1H-imidazol-2-yl)propan-1-ol]
pKd (human DLK [1]; [3]): 7.96 | pIC50 (human DLK [2]; [4]): 6.50

c1cc2ncc(-c3cn(C45CC(N6CCOCC6)(C4)C5)c(C4CC4)n3)cc2[nH]1 [Example 20, 4-(3-(2-cyclopropyl-4-(1H-pyrrolo[3,2-b]pyridin-6-yl)-1H-imidazol-1-yl)bicyclo[1.1.1]pentan-1-yl)morpholine]
pKd (human DLK [1]; [3]): 5.12 | pIC50 (human DLK [2]; [4]): 4.92

Nc1ncc(-c2cn(C34CC(N5CCOCC5)(C3)C4)c(C3CC3)n2)cc1OC(F)F [Example 37, 5-(2-cyclopropyl-1-(3-morpholinobicyclo[1.1.1]pentan-1-yl)-1H-imidazol-4-yl)-3-(difluoromethoxy)pyridin-2-amine]
pKd (human DLK [1]; [3]): 7.72 | pIC50 (human DLK [2]; [4]): 6.45

CS(=O)(=O)N1CCN(C23CC(n4cc(-c5cnc(N)c(OC(F)(F)F)c5)nc4C4CC4)(C2)C3)CC1 [Example 16, 5-(2-cyclopropyl-1-(3-(4-(methylsulfonyl)piperazin-1-yl)bicyclo[1.1.1]pentan-1-yl)-1H-imidazol-4-yl)-3-(trifluoromethoxy)pyridin-2-amine]
pKd (human DLK [1]; [3]): 7.62 | pIC50 (human DLK [2]; [4]): 6.34

Nc1ncc(-c2cn(C34CC(N5CCS(=O)(=O)CC5)(C3)C4)c(C3CC3)n2)cc1OC(F)(F)F [Example 13, 4-(3-(4-(6-amino-5-(trifluoromethoxy)pyridin-3-yl)-2-cyclopropyl-1H-imidazol-1-yl)bicyclo[1.1.1]pentan-1-yl)thiomorpholine 1,1-dioxide]
pKd (human DLK [1]; [3]): 7.49 | pIC50 (human DLK [2]; [4]): 6.50

Nc1ncc(-c2cn(C34CC(N5CCOCC5)(C3)C4)c([C@@H](O)C(F)(F)F)n2)cc1OC(F)(F)F (single isomer, unassigned) [Example 8b]
pIC50 (human DLK [2]; [4]): 6.55

CN1CCN(C23CC(n4cc(-c5cnc(N)c(C(F)(F)F)c5)nc4C4CC4)(C2)C3)CC1 [Example 75, 5-(2-cyclopropyl-1-(3-(4-methylpiperazin-1-yl)bicyclo[1.1.1]pentan-1-yl)-1H-imidazol-4-yl)-3-(trifluoromethyl)pyridin-2-amine]
pKd (human DLK [1]; [3]): 8.12 | pIC50 (human DLK [2]; [4]): 6.59

CN1CCN(C23CC(n4cc(-c5cnc(N)c(OC(F)(F)F)c5)nc4CC4CC4)(C2)C3)CC1 [Example 72, 5-(2-(cyclopropylmethyl)-1-(3-(4-methylpiperazin-1-yl)bicyclo[1.1.1]pentan-1-yl)-1H-imidazol-4-yl)-3-(trifluoromethoxy)pyridin-2-amine]
pKd (human DLK [1]; [3]): 7.72 | pIC50 (human DLK [2]; [4]): 5.94

CC(C)c1nc(-c2cnc(N)c(OC(F)(F)F)c2)cn1C12CC(N3CCN(C)CC3)(C1)C2 [Example 74, 5-(2-isopropyl-1-(3-(4-methylpiperazin-1-yl)bicyclo[1.1.1]pentan-1-yl)-1H-imidazol-4-yl)-3-(trifluoromethoxy)pyridin-2-amine]
pKd (human DLK [1]; [3]): 8.35 | pIC50 (human DLK [2]; [4]): 6.71

Nc1ncc(-c2cn(C34CC(C3)C4)c(C(O)C3CC3)n2)cc1OC(F)(F)F (stereo not drawn) [Example 56, (4-(6-amino-5-(trifluoromethoxy)pyridin-3-yl)-1-(bicyclo[1.1.1]pentan-1-yl)-1H-imidazol-2-yl)(cyclopropyl)methanol]
pKd (human DLK [1]; [3]): 8.29 | pIC50 (human DLK [2]; [4]): 6.56

FCCn1ccc2ncc(-c3cn(C45CC(N6CCOCC6)(C4)C5)c(C4CC4)n3)cc21 [Example 21, 4-(3-(2-cyclopropyl-4-(1-(2-fluoroethyl)-H-pyrrolo[3,2-b]pyridin-6-yl)-H-imidazol-1-yl)bicyclo[1.1.1]pentan-1-yl)morpholine, bis(2,2,2-trifluoroacetate)]
pKd (human DLK [1]; [3]): 6.48 | pIC50 (human DLK [2]; [4]): 5.23

Nc1ncc(-c2cn(C34CC(N5CCOCC5)(C3)C4)c(C(O)C(F)(F)F)n2)cc1C(F)(F)F (single isomer, unassigned) [Example 69b, 1-(4-(6-amino-5-(trifluoromethyl)pyridin-3-yl)-1-(3-morpholinobicyclo[1.1.1]pentan-1-yl)-1H-imidazol-2-yl)-2,2,2-trifluoroethan-1-ol]
pIC50 (human DLK [2]; [4]): 6.14

Nc1ncc(-c2cn(C34CC(C3)C4)c(C(O)C(F)(F)F)n2)cc1OC(F)(F)F (stereo not drawn) [Example 63b, 1-(4-(6-amino-5-(trifluoromethoxy)pyridin-3-yl)-1-(bicyclo[1.1.1]pentan-1-yl)-1H-imidazol-2-yl)-2,2,2-trifluoroethan-1-ol]
pKd (human DLK [1]; [3]): 8.80

N#CC1(c2nc(-c3cnc(N)c(OC(F)(F)F)c3)cn2C23CC(N4CCOCC4)(C2)C3)CC1 [Example 29, 1-(4-(6-amino-5-(trifluoromethoxy)pyridin-3-yl)-1-(3-morpholinobicyclo[1.1.1]pentan-1-yl)-1H-imidazol-2-yl)cyclopropane-1-carbonitrile]
pKd (human DLK [1]; [3]): 7.70 | pIC50 (human DLK [2]; [4]): 6.27

CC(C)(C)Cc1nc(-c2cnc(N)c(C(F)(F)F)c2)cn1C12CC(N3CCOCC3)(C1)C2 [Example 40, 5-(1-(3-morpholinobicyclo[1.1.1]pentan-1-yl)-2-neopentyl-1H-imidazol-4-yl)-3-(trifluoromethyl)pyridin-2-amine]
pKd (human DLK [1]; [3]): 7.18 | pIC50 (human DLK [2]; [4]): 5.61

Nc1ncc(-c2cn(C34CC(N5CCOCC5)(C3)C4)c(C3CC3)n2)cc1C(F)(F)F [Example 4]
pKd (human DLK [1]; [3]): 8.08 | pKd (human DLK [1]; read-out: Avg DLK Kd): 7.89 | pIC50 (human DLK [2]; Table 2a, HEK293 cells, Dox-inducible human DLK, 5 h compound, read-out: Avg Phospho-cJun Cell IC50): 6.44 | pIC50 (human DLK [2]; [4]): 6.40

Nc1ncc(-c2cn(C34CC(C3)C4)c([C@@H](O)C(F)(F)F)n2)cc1C(F)(F)F (single isomer, unassigned) [Example 6b]
pKd (human DLK [1]; [3]): 9.13 | pIC50 (human DLK [2]; [4]): 7.41

Nc1ncc(-c2cn(C34CC(N5CCOCC5)(C3)C4)c(CC3CC3)n2)cc1OC(F)F [Example 36, 5-(2-(cyclopropylmethyl)-1-(3-morpholinobicyclo[1.1.1]pentan-1-yl)-1H-imidazol-4-yl)-3-(difluoromethoxy)pyridin-2-amine]
pKd (human DLK [1]; [3]): 7.66 | pIC50 (human DLK [2]; [4]): 6.30

CC(O)c1nc(-c2cnc(N)c(OC(F)(F)F)c2)cn1C12CC(C1)C2 (stereo not drawn) [Example 55, 1-(4-(6-amino-5-(trifluoromethoxy)pyridin-3-yl)-1-(bicyclo[1.1.1]pentan-1-yl)-1H-imidazol-2-yl)ethan-1-ol]
pKd (human DLK [1]; [3]): 7.85 | pIC50 (human DLK [2]; [4]): 6.35

Nc1ncc(-c2cn(C34CC(C3)C4)c([C@H](O)C(F)(F)F)n2)cc1C(F)(F)F (single isomer, unassigned) [Example 6a]
pIC50 (human DLK [2]; [4]): 6.13

CN1CCN(C23CC(n4cc(-c5cnc(N)c(OC(F)F)c5)nc4CC4CC4)(C2)C3)CC1 [Example 73, 5-(2-(cyclopropylmethyl)-1-(3-(4-methylpiperazin-1-yl)bicyclo[1.1.1]pentan-1-yl)-1H-imidazol-4-yl)-3-(difluoromethoxy)pyridin-2-amine]
pKd (human DLK [1]; [3]): 7.74 | pIC50 (human DLK [2]; [4]): 6.20

CC(C)Cc1nc(-c2cnc(N)c(OC(F)(F)F)c2)cn1C12CC(N3CCOCC3)(C1)C2 [Example 45, 5-(2-isobutyl-1-(3-morpholinobicyclo[1.1.1]pentan-1-yl)-1H-imidazol-4-yl)-3-(trifluoromethoxy)pyridin-2-amine]
pKd (human DLK [1]; [3]): 7.82 | pIC50 (human DLK [2]; [4]): 6.12

C[C@H](O)c1nc(-c2cnc(N)c(C(F)(F)F)c2)cn1C12CC(C1)C2 [Example 33, (S)-1-(4-(6-amino-5-(trifluoromethyl)pyridin-3-yl)-1-(bicyclo[1.1.1]pentan-1-yl)-1H-imidazol-2-yl)ethan-1-ol]
pKd (human DLK [1]; [3]): 8.01 | pIC50 (human DLK [2]; [4]): 6.68

CCCN1CCN(C23CC(n4cc(-c5cnc(N)c(OC(F)(F)F)c5)nc4C(O)C(C)C)(C2)C3)CC1 (stereo not drawn) [Example 70, 1-(4-(6-amino-5-(trifluoromethoxy)pyridin-3-yl)-1-(3-(4-propylpiperazin-1-yl)bicyclo[1.1.1]pentan-1-yl)-1H-imidazol-2-yl)-2-methylpropan-1-ol]
pIC50 (human DLK [2]; [4]): 6.03

C#CCN1CCN(C23CC(n4cc(-c5cnc(N)c(OC(F)(F)F)c5)nc4[C@@H](O)C(C)C)(C2)C3)CC1 (single isomer, unassigned) [Example 9a]
pIC50 (human DLK [2]; [4]): 7.69

C#CCN1CCN(C23CC(n4cc(-c5cnc(N)c(OC(F)(F)F)c5)nc4[C@H](O)C(C)C)(C2)C3)CC1 (single isomer, unassigned) [Example 9b]
pIC50 (human DLK [2]; [4]): 6.16
